Source: publication PMC11915032, “Development of a Novel ^18F-Labeled Radioligand for Imaging Cholesterol 24-Hydroxylase with Positron Emission Tomography” (ACS Pharmacology & Translational Science, 2025)
Each block holds one compound with its values, some of them ahead of it.

Key:
CYP46A1 [1] = molecular target: T1, CYP46A1 (Homo sapiens, UniProt Q9Y6A2); experiment: CYP46A1 inhibition potency; assay type: biochemical
CYP46A1 [2] = molecular target: T2, CYP46A1 (Rattus norvegicus, UniProt A0ACM8QFK4); experiment: In vitro autoradiography with [^18F]5 on rat brain tissue sections; assay type: binding; settings: displacement of [^18F]5 with unlabeled 5 at varying concentrations
T2 construct: from tissue; host or cells: rat brain (Sprague-Dawley rats)
T2 sequence (A0ACM8QFK4 29-500): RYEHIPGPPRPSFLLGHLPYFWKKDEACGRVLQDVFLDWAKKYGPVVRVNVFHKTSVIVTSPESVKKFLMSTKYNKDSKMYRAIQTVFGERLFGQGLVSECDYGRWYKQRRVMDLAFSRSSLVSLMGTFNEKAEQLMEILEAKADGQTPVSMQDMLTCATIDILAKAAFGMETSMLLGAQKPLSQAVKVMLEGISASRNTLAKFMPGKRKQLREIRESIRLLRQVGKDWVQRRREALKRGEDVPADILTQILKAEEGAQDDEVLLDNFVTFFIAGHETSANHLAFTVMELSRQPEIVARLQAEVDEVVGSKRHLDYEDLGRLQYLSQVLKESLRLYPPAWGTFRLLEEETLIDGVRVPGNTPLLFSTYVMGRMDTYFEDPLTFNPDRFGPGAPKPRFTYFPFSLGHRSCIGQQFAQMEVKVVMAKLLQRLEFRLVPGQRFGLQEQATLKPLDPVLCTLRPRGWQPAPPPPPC
Procedure: To assess the binding specificity of [^18F]5 for CYP46A1, in vitro autoradiography was performed by using rat brain tissue sections. […] The accumulation patterns are in agreement with the brain distribution of CYP46A1 in rodents.[18] […] Furthermore, [^18F]5 was utilized to assess the potency toward CYP46A1 through an inhibition assay based on an in vitro autoradiography study (Figure 4B). The assay was performed by the incubation of [^18F]5 on rat brain tissue sections in the presence of unlabeled 5 at varying concentrations.
The autoradiography study was conducted as previously reported.[22],[23] In brief, sagittal rat brain sections (20 μm) were incubated with Tris–HCl buffer (50 mM) at room temperature for 20 min and then incubated with [^18F]5 (1 μCi/mL). In the blocking study, the brain sections were incubated with [^18F]5 in the presence of Soticlestat, CHL2205, or 5 (10 μM). Then, the brain sections were washed with ice-cold Tris–HCl buffer (50 mM) for 2 min and cold distilled water for 10 s. Subsequently, the brain sections were dried, positioned on an imaging screen, and scanned by an Amersham Typhoon analyzer system.

67 major CNS targets = experiment: Off-target binding screen at 10 μM (NIMH PDSP); settings: 10 μM testing concentration; except sigma-2 receptor
Procedure: Furthermore, off-target binding assays of compound 5 were performed in vitro against 67 major CNS targets (Figure S1 in the Supporting Information).
1 Supporting Scheme, Figures, and Tables
Scheme S1. Synthesis of precursor 6. (i) azetidin-3-ol hydrochloride, triphosgene, NEt 3, dichloromethane, 0 °C to room temperature, 1 h; (ii) 4-nitrobenzenesulfonyl chloride, 4-(dimethylamino)pyridine, NEt3, dichloromethane, room temperature, 12 h, 31% yield over […]
% Inhibition of Target Activity
Figure S1. Off-target pharmacological evaluation of compound 5 against major CNS targets, including common GPCRs, enzymes, ion channels, and transporters: initial screening at a concentration of 10 μM (supported by the NIMH PDSP). All data are mean

[3] = logD by shake flask method; assay type: physicochemical; settings: n-octanol/PBS
Procedure: The lipophilicity was measured according to a previous report.[21] In brief, [^18F]5, n-octanol (3 mL), and PBS (3 mL) were added in a centrifugal tube, followed by vortexing for 3 min and centrifugation (∼14,000 rpm) for 5 min. Then, PBS (around 500 μL) and n-octanol (around 50 μL) were weighed and measured by a gamma counter.

CYP46A1 [4] = molecular target: T2, CYP46A1; experiment: Dynamic PET imaging in Sprague-Dawley rats; assay type: in vivo
Procedure: To investigate the in vivo binding specificity of [^18F]5 toward CYP46A1, dynamic PET imaging was performed in Sprague–Dawley (SD) rats (Figures 5 and S3 in the Supporting Information). […] Future studies will be required to evaluate its suitability in higher species and direct comparisons under identical experimental conditions. […] To investigate the reversibility of the tracer binding, we further performed a displacement study with Soticlestat at 20 min postadministration of [^18F]5 (Figure S4 in the Supporting Information).
The dynamic PET imaging study was performed in SD rats as previously reported.[21] A Genisys G8 PET scanner (Sofie Biosciences, USA) was used for dynamic PET imaging in rats with [^18F]5 (0.04 mCi) for 60 min. In the blocking study, rats were pretreated with Soticlestat (1 mg/kg, intravenous injection via the tail vein) 10 min before administration of [^18F]5. For the chase study, the rats were treated with Soticlestat (1 mg/kg, i.v.) 20 min after administration of [^18F]5.

CYP46A1 [5] = molecular target: T1, CYP46A1; set-up: method as in PMID 32178974, PMID 34651220, PMID 37770111, PMID 36197966; settings: in vivo; cited from earlier work
[6] = Radiometabolite analysis in SD rats; assay type: in vivo, rat
Procedure: Radiometabolite analysis of [^18F]5 was conducted as previously reported.[25] SD rats were administrated with [^18F]5 and then euthanized at 20 and 60 min after administration of [^18F]5. The brains were collected, homogenized, and centrifuged with cold acetonitrile and PBS buffer. Then, the supernatants were injected into a radio-HPLC with unlabeled 5 as an internal standard. Both [^18F]5 and its ^18F-metabolites were collected by HPLC and then measured by a gamma counter. The same procedure was performed for the plasma.

Stability in rat serum = assay type: in vitro ADME; settings: 37 °C, up to 60 min
Procedure: (§1) Mouse serum (Sigma-Aldrich, cat. M5905, 0.4 mL), rat serum (Abcam, cat. ab7488, 0.4 mL), NHP serum (Abcam, cat. ab155109, 0.4 mL), and human serum (Sigma-Aldrich, cat. H4522, 0.4 mL) were incubated at 37 °C for 5 min. Then, formulated [^18F]5 was added and incubated at 37 °C (Benfluorex was used in the positive control test). At 5, 30, and 60 min after incubation with [^18F]5, 100 μL of the samples was drawn in centrifugal tubes and added to ice-cold MeCN (100 μL). The mixtures were centrifuged at 10,000g for 5 min, and the supernatants were analyzed by radio-HPLC.

Stability in NHP serum = assay type: in vitro ADME; settings: 37 °C, up to 60 min
Procedure: as §1

[7] = Whole-body biodistribution in CD-1 mice; assay type: in vivo, mouse
Procedure: The biodistribution study was conducted in CD-1 mice as previously reported.[24] CD-1 mice were administrated with [^18F]5 (10 μCi) and divided into four groups and then euthanized at 5, 15, 30, and 60 min after administration of [^18F]5. Major organs were collected, weighed, and measured by a gamma counter.

Stability in human serum = assay type: in vitro ADME; settings: 37 °C, up to 60 min
Procedure: as §1

Stability in mouse serum = assay type: in vitro ADME; settings: 37 °C, up to 60 min
Procedure: as §1

[8] = In vitro stability in saline; assay type: physicochemical; settings: saline 18.5 MBq/mL, containing 5% ethanol, up to 60 min
Procedure: The ^18F-labeling nosylate precursor 6 was prepared via a procedure similar to that of compound 5 in 31% yield over two steps (Scheme S1). […] [^18F]5 was generated in a 13% decay-corrected radiochemical yield with a high molar activity of 93 GBq/μmol (2.5 Ci/ μmol).

T1 sequence (Q9Y6A2 whole entry, species assumed): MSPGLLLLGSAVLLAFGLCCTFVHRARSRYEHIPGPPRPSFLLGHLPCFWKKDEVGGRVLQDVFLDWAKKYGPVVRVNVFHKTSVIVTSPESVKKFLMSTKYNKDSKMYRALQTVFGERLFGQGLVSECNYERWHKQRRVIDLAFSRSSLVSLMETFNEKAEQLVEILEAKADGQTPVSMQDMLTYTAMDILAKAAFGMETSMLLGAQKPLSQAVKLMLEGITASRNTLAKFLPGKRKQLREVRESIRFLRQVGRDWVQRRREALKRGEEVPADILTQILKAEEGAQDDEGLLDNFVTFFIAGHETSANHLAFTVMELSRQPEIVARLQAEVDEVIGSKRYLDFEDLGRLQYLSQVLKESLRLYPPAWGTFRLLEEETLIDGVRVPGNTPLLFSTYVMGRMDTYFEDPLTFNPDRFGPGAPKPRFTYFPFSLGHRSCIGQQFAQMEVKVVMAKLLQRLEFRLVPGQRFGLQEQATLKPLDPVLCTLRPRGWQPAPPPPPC

IC50 (CYP46A1 [1]): 0.11 nM
Kd (CYP46A1 [2]): 0.37 nM
off-target binding (>50% inhibition) (67 major CNS targets): no significant off-target binding
logD [3]: 3.16
SMILES: O=C(N1CC(F)C1)N1CCc2c(-c3cnco3)cc(C(F)(F)F)cc21 [Compound 5, (3-fluoroazetidin-1-yl)(4-(oxazol-5-yl)-6-(trifluoromethyl)indolin-1-yl)methanone]

SMILES: O=C(c1cccnc1-c1ccncc1)N1CCC(O)(Cc2ccccc2)CC1 [Soticlestat, reference compound]
brain signal in displacement (chase) study (CYP46A1 [4]; 1 mg/kg i.v. at 20 min postadministration of [^18F]5): markedly reduced

SMILES: O=[11C](NCc1ccccc1)N1CCN(c2cncnc2-c2ccccc2)CC1 [[^11C]A]
binding specificity toward CYP46A1 (CYP46A1 [5]): marginal binding specificity
brain uptake (CYP46A1 [5]): low brain uptake

SMILES: O=C(C1CCN(c2cnccc2-n2cc(Cl)cn2)CC1)N1CC([18F])C1 [[^18F]3g]
binding specificity toward CYP46A1 (CYP46A1 [5]): good binding specificity
brain uptake (CYP46A1 [5]): high brain uptake

unchanged [^18F]5 in brain ([6]; 20 min postadministration): 93%
unchanged [^18F]5 in plasma ([6]; 20 min postadministration): 29%
unchanged [^18F]5 in brain ([6]; 60 min postadministration): 92%
unchanged [^18F]5 in plasma ([6]; 60 min postadministration): 23%
stability in rat serum (Stability in rat serum): minimal radiometabolite formation
stability in NHP serum (Stability in NHP serum): minimal radiometabolite formation
IC50 (CYP46A1 [1]): 0.11 nM
bone uptake (radiodefluorination) ([7]; 5-60 min): No obvious increase in bone uptake
liver uptake ([7]; 60 min): 6.5 % ID/g
initial uptake in brain, small intestine, kidney and liver ([7]; initially): ~10 % ID/g
stability in human serum (Stability in human serum): minimal radiometabolite formation
SUVmax in striatum (CYP46A1 [4]; SD rats, baseline PET): 4.1
SUVmax in thalamus (CYP46A1 [4]; SD rats, baseline PET): 4.2
brain uptake SUV (CYP46A1 [4]; rodents): > 4
stability in mouse serum (Stability in mouse serum): minimal radiometabolite formation
in vitro stability (radiolysis) in saline [8]: no radiolysis detected
SMILES: O=C(N1CC([18F])C1)N1CCc2c(-c3cnco3)cc(C(F)(F)F)cc21 [[^18F]5]

SMILES: CN(C(=O)C1CCN(c2cncnc2-c2ccc([18F])cc2)CC1)C1CC1 [[^18F]CHL2205]
binding specificity toward CYP46A1 (CYP46A1 [5]): good binding specificity
brain uptake (CYP46A1 [5]): high brain uptake

SMILES: O=C(C1CCN(c2cncnc2-c2ccc(F)cc2)CC1)N1CC([18F])C1 [[^18F]T-008]
binding specificity toward CYP46A1 (CYP46A1 [5]): good binding specificity
brain uptake (CYP46A1 [5]): high brain uptake
